Assay results: the Kinase Knowledgebase extract (Sharma et al. 2016)

Legend:
[1] = target: PIK3CA (human), P42336 [Antiproliferation of PI3K Mutated BT20 Cells]; assay: Cell-Based Assay
[2] = target: PIK3CA (human) (UniProt P42336); assay: Inhibition of PIK3CA Kinase Activity
PIK3CA (human), sequence (P42336 whole entry, looked up): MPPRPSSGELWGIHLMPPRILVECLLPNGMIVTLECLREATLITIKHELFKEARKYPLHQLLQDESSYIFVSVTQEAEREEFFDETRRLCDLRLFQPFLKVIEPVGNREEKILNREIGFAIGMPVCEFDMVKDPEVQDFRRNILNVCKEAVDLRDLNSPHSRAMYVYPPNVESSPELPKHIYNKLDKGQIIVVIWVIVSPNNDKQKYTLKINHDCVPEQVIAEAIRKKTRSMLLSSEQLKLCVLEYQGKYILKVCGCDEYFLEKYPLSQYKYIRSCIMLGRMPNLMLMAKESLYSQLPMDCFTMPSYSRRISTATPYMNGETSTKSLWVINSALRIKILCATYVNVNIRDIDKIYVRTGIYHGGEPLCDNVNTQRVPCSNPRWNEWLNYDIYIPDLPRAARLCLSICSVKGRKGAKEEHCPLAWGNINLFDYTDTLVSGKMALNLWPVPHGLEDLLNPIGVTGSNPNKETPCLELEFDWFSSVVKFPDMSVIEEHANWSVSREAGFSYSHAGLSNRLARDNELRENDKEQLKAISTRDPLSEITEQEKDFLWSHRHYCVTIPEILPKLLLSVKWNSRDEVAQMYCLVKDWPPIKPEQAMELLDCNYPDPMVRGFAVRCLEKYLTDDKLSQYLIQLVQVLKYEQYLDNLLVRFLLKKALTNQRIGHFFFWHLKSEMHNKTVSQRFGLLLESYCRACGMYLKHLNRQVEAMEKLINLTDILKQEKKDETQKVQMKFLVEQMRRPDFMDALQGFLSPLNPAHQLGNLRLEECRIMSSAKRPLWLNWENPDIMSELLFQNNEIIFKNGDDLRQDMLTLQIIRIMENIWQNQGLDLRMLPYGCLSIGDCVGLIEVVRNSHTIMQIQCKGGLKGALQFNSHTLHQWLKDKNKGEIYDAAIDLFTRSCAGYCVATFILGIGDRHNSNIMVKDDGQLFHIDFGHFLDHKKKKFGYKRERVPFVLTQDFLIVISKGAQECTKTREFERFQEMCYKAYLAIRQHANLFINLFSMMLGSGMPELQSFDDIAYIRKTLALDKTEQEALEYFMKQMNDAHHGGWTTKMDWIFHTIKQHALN

PIK3CA (human), P42336 [Antiproliferation of PI3K Mutated BT20 Cells], sequence (P42336 whole entry, looked up, change not shown): as the sequence (P42336 whole entry, looked up) above

| IC50 [1] [µM] | IC50 [2] [µM] | Structure (SMILES) |
| --- | --- | --- |
| 10 | 5.5 | CCNc1nc(C)c2cc(CCC(=O)OCC)c(=O)n(C3CCCC3)c2n1 |
| 0.0876 | 0.0046 | COc1ccc(-c2cc3c(C)nc(N)nc3n([C@@H]3CC[C@@H](O)C3)c2=O)cn1 |
| 0.0126 | 0.00214 | COc1ncc(-c2cc3c(C)nc(N)nc3n([C@H]3C[C@H](OCC(N)=O)C3)c2=O)cc1F |
| – | 0.056 | COc1ccc(-c2cc3c(C)nc(N)nc3n(C3CC3)c2=O)cn1 |
| 0.0461 | 0.00177 | CCNc1nc(C)c2cc(-c3cnc4[nH]ccc4c3)c(=O)n(C3CCCC3)c2n1 |
| 0.11 | 0.00591 | COc1ncc(-c2cc3c(C)nc(N)nc3n([C@H]3C[C@H](OCC(N)=O)C3)c2=O)cn1 |
| 0.0152 | 0.018 | Cc1nc(N)nc2c1cc(-c1cn[nH]c1)c(=O)n2C1CCC(C)(O)CC1 (configuration not stated) |
| 0.0414 | 0.0089 | CNc1nc(C)c2cc(-c3ccc(OC)nc3)c(=O)n(CCC3CC3)c2n1 |
| 0.0051 | 0.000788 | CCNc1nc(C)c2cc(-c3cnc(OC)c(F)c3)c(=O)n([C@H]3CC[C@H](O)CC3)c2n1 |
| 0.0147 | 0.00478 | CNc1nc(C)c2cc(-c3cccc(CO)c3)c(=O)n(C3CCCC3)c2n1 |
| 0.318 | 0.029 | COc1ccc(-c2cc3c(C)nc(N)nc3n(C3CN(C(=O)OC(C)(C)C)C3)c2=O)cn1 |
| 8.3 | 2.1 | CNc1nc(C)c2cc(-c3ncccc3F)c(=O)n(C3CCCC3)c2n1 |
| 0.0146 | 0.00311 | COc1ncc(-c2cc3c(C)nc(N)nc3n([C@H]3C[C@H](OCCO)C3)c2=O)cc1F |
| 0.228 | 0.13 | Cc1nc(N)nc2c1cc(Br)c(=O)n2[C@H]1CC[C@@H](O)CC1 |
| 0.181 | 0.067 | CNc1nc(C)c2cc(-c3c[nH]c(C)n3)c(=O)n(C3CCCC3)c2n1 |
| 0.0193 | – | COc1ccc(-c2cc3c(C)nc(N)nc3n([C@H]3CC[C@H](OCC(N)=O)CC3)c2=O)cn1 |
| 0.0267 | 0.045 | COc1ncc(-c2cc3c(C)nc(N)nc3n(C3CCOCC3)c2=O)cn1 |
| 0.064 | 0.031 | CO[C@H]1CC[C@H](n2c(=O)c(Br)cc3c(C)nc(N)nc32)CC1 |
| 5.71 | 0.31 | CCNc1nc(C)c2cc(CCC(=O)Nc3ncc[nH]3)c(=O)n(C3CCCC3)c2n1 |
| 10 | 0.046 | CNc1nc(C)c2cc(-c3cnn(CC(F)F)c3)c(=O)n(C3CCCC3)c2n1 |
| 0.0153 | 0.00531 | COc1ncc(-c2cc3c(C)nc(N)nc3n([C@H]3CC[C@@H](OCCO)CC3)c2=O)cn1 |
| 0.0389 | 0.0022 | COc1ncc(-c2cc3c(C)nc(N)nc3n([C@H]3CC[C@H](OCCO)CC3)c2=O)cn1 |

| IC50 [1] [µM] | IC50 [2] [µM] | Structure (SMILES) |
| --- | --- | --- |
| 0.0221 | 0.006 | CNc1nc(C)c2cc(-c3cn[nH]c3)c(=O)n(CC3CCOC3)c2n1 (configuration not stated) |
| 0.226 | 0.0223 | Cc1nc(N)nc2c1cc(-c1cnn(C)c1)c(=O)n2[C@H]1CC[C@H](OCCO)CC1 |
| 0.00382 | 0.00075 | CNc1nc(C)c2cc(-c3cnc4[nH]ccc4c3)c(=O)n(C3CCCC3)c2n1 |
| 10 | 0.054 | CCNc1nc(C)c2cc(CCC(=O)O)c(=O)n(C3CCCC3)c2n1 |
| – | 0.028 | Cc1nc(N)nc2c1cc(-c1cn[nH]c1)c(=O)n2N1CCCC1 |
| 2.76 | 0.46 | CNc1nc(C)c2cc(-c3ccc(OC)nc3)c(=O)[nH]c2n1 |
| 0.0231 | 0.011 | Cc1cc(-c2cc3c(C)nc(N)nc3n(C3CCCC3)c2=O)cnc1N(C)C |
| 0.475 | 0.018 | Cc1nc(N)nc2c1cc(-c1cnn(C)c1)c(=O)n2[C@H]1CC[C@H](O)CC1 |
| 0.0265 | 0.088 | Cc1nc(N)nc2c1cc(-c1ccc(N3CCCC3)nc1)c(=O)n2C1CCCC1 |
| – | 0.078 | Cc1nc(N)nc2c1cc(-c1cn[nH]c1)c(=O)n2C1CC1 |
| 2.09 | 0.095 | Cc1nc(N)nc2c1cc(C#N)c(=O)n2C1CCC1 |
| 0.00349 | – | Cc1nc(N)nc2c1cc(-c1cn[nH]c1)c(=O)n2C1CCCC1 |
| 5.75 | 0.83 | COc1ccc(-c2cc3c(C)nc(NCC(C)(C)O)nc3n(C3CCCC3)c2=O)cn1 |
| 0.397 | 0.012 | Cc1nc(N)nc2c1cc(-c1cnn(CC(F)F)c1)c(=O)n2C1CCCC1 |
| 0.669 | 0.244 | CNc1nc(C)c2cc(-c3cccc(OC)c3)c(=O)n(C3CCCC3)c2n1 |
| 0.00466 | 0.012 | Cc1nc(N)nc2c1cc(-c1cn[nH]c1)c(=O)n2C1CCC(=O)CC1 |
| 10 | – | CCNc1nc(C)c2cc(CCC(=O)N(CC)CC)c(=O)n(C3CCCC3)c2n1 |
| 0.623 | 0.032 | Cc1nc(N)nc2c1cc(-c1cnn(C)c1)c(=O)n2C1CCCC1 |
| 0.556 | 0.062 | Cc1nc(N)nc2c1cc(-c1c[nH]nn1)c(=O)n2C(C)C |
| 0.0305 | 0.0029 | Cc1nc(N)nc2c1cc(C(=O)Nc1ccn[nH]1)c(=O)n2C(C)C |
| 0.256 | 0.038 | Cc1nc(N)nc2c1cc(-c1cnc3[nH]ccc3c1)c(=O)n2C1CN(C(=O)OC(C)(C)C)C1 |
| 0.127 | 0.007 | COc1ccc(-c2cc3c(C)nc(N)nc3n(C3CCN(C(C)=O)C3)c2=O)cn1 (configuration not stated) |

| IC50 [1] [µM] | IC50 [2] [µM] | Structure (SMILES) |
| --- | --- | --- |
| 10 | 3.4 | Cc1nc(N)nc2c1cc(-c1ccc(F)cc1)c(=O)n2CC(C)(C)O |
| 0.00737 | 0.0039 | COc1ccc(-c2cc3c(C)nc(N)nc3n([C@H]3CC[C@H](OC)CC3)c2=O)cn1 |
| 0.019 | 0.000989 | COc1cc(-c2cc3c(C)nc(N)nc3n(C3CCCC3)c2=O)ccc1O |
| 0.0578 | 0.0028 | Cc1nc(N)nc2c1cc(-c1cnc3[nH]ccc3c1)c(=O)n2CC1CCOC1 (configuration not stated) |
| 0.65 | 0.068 | CNc1nc(C)c2cc(C(N)=O)c(=O)n(C3CCCC3)c2n1 |
| 0.0179 | 0.015 | Cc1nc(N)nc2c1cc(-c1cnc(N)cn1)c(=O)n2C1CCCC1 |
| 0.106 | 0.017 | C=CCn1c(=O)c(-c2ccc(OC)nc2)cc2c(C)nc(NC)nc21 |
| 1.18 | – | Cc1nc(NCC(C)(C)O)nc2c1cc(-c1cccc(O)c1)c(=O)n2C1CCCC1 |
| 0.172 | 0.027 | COc1ccc(-c2cc3c(C)nc(N)nc3n(C3CCN(C(=O)OC(C)(C)C)C3)c2=O)cn1 (configuration not stated) |
| 0.0263 | 0.00308 | CCNc1nc(C)c2cc(-c3ccc(O)c(OC)c3)c(=O)n(C3CCCC3)c2n1 |
| 2.36 | 0.68 | Cc1nc(N)nc2c1cc(Br)c(=O)n2CC(C)(C)O |
| 0.12 | 0.021 | COc1ccc(-c2cc3c(C)nc(N)nc3n(CC3CCCO3)c2=O)cn1 (configuration not stated) |
| – | 0.0026 | COc1ncc(-c2cc3c(C)nc(N)nc3n([C@H]3CC[C@@H](OCCO)CC3)c2=O)cc1F |
| 0.042 | 0.0082 | Cc1nc(N)nc2c1cc(-c1cnc3ccccc3c1)c(=O)n2[C@H]1CC[C@H](O)CC1 |
| 0.0101 | 0.0062 | CO[C@H]1CC[C@H](n2c(=O)c(-c3ccc(N(C)C)nc3)cc3c(C)nc(N)nc32)CC1 |
| – | 1.4 | Cc1nc(N)nc2c1cc(-c1ccccc1)c(=O)n2Cc1ccc(Cl)cc1 |
| 0.00508 | 0.093 | Cc1nc(N)nc2c1cc(-c1cnn(C(=O)OC(C)(C)C)c1)c(=O)n2N1CCCC1 |
| – | 0.0039 | CCn1nccc1NC(=O)c1cc2c(C)nc(N)nc2n(C(C)C)c1=O |
| 0.0456 | 0.0046 | CNc1nc(C)c2cc(-c3ccc(OC)nc3)c(=O)n(CC3CCOC3)c2n1 (configuration not stated) |
| 0.0119 | 0.002 | Cc1nc(N)nc2c1cc(-c1cnc3[nH]ccc3c1)c(=O)n2C1CCC1 |
| 0.0206 | 0.00159 | CCNc1nc(C)c2cc(-c3cnc(OC)nc3)c(=O)n([C@H]3CC[C@H](O)CC3)c2n1 |
| 0.594 | 0.048 | CNc1nc(C)c2cc(Br)c(=O)n(CC3CCOC3)c2n1 (configuration not stated) |

| IC50 [1] [µM] | IC50 [2] [µM] | Structure (SMILES) |
| --- | --- | --- |
| 0.0204 | 0.0012 | Cc1nc(N)nc2c1cc(-c1cnc3[nH]ccc3c1)c(=O)n2[C@@H]1CC[C@H](O)C1 |
| 0.234 | 0.024 | CNc1nc(C)c2cc(-c3cnn(CCO)c3)c(=O)n(C3CCCC3)c2n1 |
| 0.00176 | 0.000731 | CNc1nc(C)c2cc(-c3cccc(O)c3)c(=O)n(C3CCCC3)c2n1 |
| 0.0164 | 0.00234 | CNc1nc(C)c2cc(C(=O)Nc3cc[nH]n3)c(=O)n(C3CCCC3)c2n1 |
| 10 | – | CNc1nc(C)c2cc(-c3cc(CN)ccc3F)c(=O)n(C3CCCC3)c2n1 |
| 0.00305 | 0.00101 | CCNc1nc(C)c2cc(-c3cccc(O)c3)c(=O)n(C3CCCC3)c2n1 |
| – | 0.00143 | COc1ncc(-c2cc3c(C)nc(N)nc3n(C3CCOCC3)c2=O)cc1F |
| 10 | – | CCNc1nc(C)c2cc(CCC(=O)N(C)C)c(=O)n(C3CCCC3)c2n1 |
| 0.0714 | – | COc1ccc(-c2cc3c(C)nc(N)nc3n(C3CCOCC3)c2=O)cn1 |
| 0.322 | – | Cc1nc(N)nc2c1cc(-c1cnc3ccccc3c1)c(=O)n2CC(C)(C)O |
| 10 | – | CCNc1nc(C)c2cc(CCC(=O)Nc3ccccn3)c(=O)n(C3CCCC3)c2n1 |
| 0.0829 | – | COc1ncc(-c2cc3c(C)nc(N)nc3n([C@H]3CC[C@@H](OCC(N)=O)CC3)c2=O)cn1 |
| – | 0.023 | COc1ccc(-c2cc3c(C)nc(N)nc3n(N3CCCC3)c2=O)cn1 |
| – | 4.9 | Cc1nc(N)nc2c1cc(-c1ccncc1)c(=O)n2Cc1ccc(Cl)cc1 |
| 0.019 | – | COc1ccc(-c2cc3c(C)nc(N)nc3n([C@H]3CC[C@@H](O)CC3)c2=O)cn1 |
| – | 1.2 | CCn1cc(CNC(=O)c2cc3c(C)nc(NC)nc3n(C3CCCC3)c2=O)cn1 |
| 0.0036 | – | COc1ccc(-c2cc3c(C)nc(N)nc3n([C@H]3CC[C@H](O)CC3)c2=O)cn1 |
| 0.0519 | – | COc1ncc(-c2cc3c(C)nc(N)nc3n([C@H]3CC[C@H](OCC(N)=O)CC3)c2=O)cn1 |
| – | 0.31 | COc1ccc(Cn2c(=O)c(-c3ccccc3)cc3c(C)nc(N)nc32)cc1 |
| 0.0205 | – | COc1ccc(-c2cc3c(C)nc(N)nc3n([C@H]3CC[C@@H](OCC(N)=O)CC3)c2=O)cn1 |
